In patent US12110288B2, “MASP-2 inhibitors and methods of use” (Omeros Corporation, priority 2019, dated 2024):
pKi: −log10 of the molar value. Where a name gives a salt, the structure may show the parent alone.

Each molecule was assayed against T1, MASP-2 (CCP1-CCP2-SP) (Homo sapiens, UniProt O00187) (assay: Enzymatic Assay for MASP-2). Conditions: fluorogenic substrate based on C2 cleavage site, room temperature, 20 mM HEPES pH 7.4.
T1 construct: 15 μL of Enzyme MASP-2 (CCP1-CCP2-SP) in Assay Buffer
T1 sequence (O00187 445-686 limits assumed): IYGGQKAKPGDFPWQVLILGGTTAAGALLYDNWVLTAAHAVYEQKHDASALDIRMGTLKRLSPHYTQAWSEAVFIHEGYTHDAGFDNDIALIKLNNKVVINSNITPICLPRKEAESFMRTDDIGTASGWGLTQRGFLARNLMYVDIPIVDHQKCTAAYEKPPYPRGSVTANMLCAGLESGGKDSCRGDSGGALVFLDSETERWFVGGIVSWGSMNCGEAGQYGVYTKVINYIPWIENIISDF
T1 sequence (O00187 298-444 partner limits assumed): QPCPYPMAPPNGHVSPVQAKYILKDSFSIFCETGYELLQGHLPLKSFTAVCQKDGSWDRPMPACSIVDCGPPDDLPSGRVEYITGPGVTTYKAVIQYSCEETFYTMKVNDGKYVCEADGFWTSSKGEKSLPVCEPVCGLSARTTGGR
Assay type: biochemical
Protocol: Enzymatic Assay for MASP-2
The MASP-2 assay utilizes a fluorogenic substrate, based on the cleavage site for its natural substrate C2. The assay is run at room temperature in an assay buffer containing 20 mM HEPES, pH 7.4, 140 mM NaCl and 0.1% Tween 20. Assay parameters are adjusted such that the assay is linear with respect to time, enzyme, and substrate concentrations. Under these optimized assays conditions, IC50 values are equivalent to Ki values, except in a few cases of “tight binding” inhibitors. Cases of “tight binding” or possible “slow binding” inhibitors are handled by the methods described in Copeland R. A. (2013) Evaluation of Enzyme Inhibitors in Drug Discovery. 2nd Ed., John Wiley and Sons, Inc., Chapters 5-7.
The MASP-2 assay protocol is carried out as follows. Test compounds are serially diluted in DMSO and then 100 nL of each dilution is transferred to the assay plate(s). 10 μL of Assay Buffer is added, followed by 15 μL of Enzyme MASP-2 (CCP1-CCP2-SP) in Assay Buffer. 15 μL of Substrate in Assay Buffer is then added and mixed to start the reactions. After 20 min at room temperature, 15 μL of a stop solution (0.1 M acetic acid) is added, mixed and the plates are read on a SpectraMax i3x Microplate Reader and exported as Excel files. Each assay plate included a “no inhibitor” (DMSO Only) control, a “no enzyme” control and a reference inhibitor control. % Activity values=100*(average test comp. fluorescence−average “no enzyme” fluorescence)/(average “DMSO only” fluorescence−average “no enzyme” fluorescence). IC50 and Ki values are very reproducible, falling well within ±2-fold.

| Compound | pKi |
| --- | --- |
| Cc1cc2[nH]c(CNC(=O)Cn3c(-c4ccccc4)cnc(NCCc4ccccc4)c3=O)cc2cn1 [Compound 67, N-((6-Methyl-1H-Pyrrolo[3,2-c]Pyridin-2-yl)Methyl)-2-(2-Oxo-3-(Phenethylamino)-6-Phenylpyrazin-1(2H)-yl)Acetamide Trifluoroacetate] | > 6.30 |
| O=C(Cn1c(-c2ccccc2)cnc(NCC2(c3ccc(Cl)cc3)CC2)c1=O)NCc1cnc2c(c1)CNC2 [Compound 69, 2-(3-(((1-(4-Chlorophenyl)Cyclopropyl)Methyl)Amino)-2-Oxo-6-Phenylpyrazin-1(2H)-yl)-N-((6,7-Dihydro-5H-Pyrrolo[3,4-5]Pyridin-3-yl)Methyl)Acetamide Trifluoroacetate] | > 6.30 |
| Cc1nccc2[nH]c(CNC(=O)Cn3c(-c4ccccc4)cnc(NCCc4ccccc4)c3=O)cc12 [Compound 72, trifluoroacetate] | > 6.30 |
| Cn1cc(-c2cnc(NCCc3ccccc3)c(=O)n2CC(=O)NCc2cc3c(s2)CCNC3)cn1 [Compound 78, 2-(6-(1-Methyl-1H-Pyrazol-4-yl)-2-Oxo-3-(Phenethylamino)Pyrazin-1(2H)-yl)-N-((4,5,6,7-Tetrahydrothieno[3,2-c]Pyridin-2-yl)Methyl)Acetamide] | 5.60 to 6.30 |
| Cn1cc(-c2cnc(NCCc3ccccc3)c(=O)n2CC(=O)NCc2cc3c(s2)CNCC3)cn1 [Compound 79] | > 6.30 |
| Cn1cc(-c2cnc(NCCc3ccccc3)c(=O)n2CC(=O)NCc2ccc3c(c2)CCNC3)cn1 [Compound 80, 2-(6-(1-Methyl-1H-Pyrazol-4-yl)-2-Oxo-3-(Phenethylamino)Pyrazin-1(2H)-yl)-N-((1,2,3,4-Tetrahydroisoquinolin-6-yl)Methyl)Acetamide] | 5.00 to 5.60 |
| Cn1cc(-c2cnc(NCCc3ccccc3)c(=O)n2CC(=O)NCc2cnc3[nH]cc(Cl)c3c2)cn1 [Compound 81, N-((3-Chloro-1H-Pyrrolo[2,3-b]Pyridin-5-yl)Methyl)-2-(6-(1-Methyl-1H-Pyrazol-4-yl)-2-Oxo-3-(Phenethylamino)Pyrazin-1(2H)-yl)Acetamide] | 5.00 to 5.60 |
| Cn1cc(-c2cnc(NCCc3ccccc3)c(=O)n2CC(=O)NCc2cnc3scc(Cl)c3c2)cn1 [Compound 82] | 5.00 to 5.60 |
| O=C(Cn1c(-c2ccccc2)cnc(NCCc2ccccc2)c1=O)NCc1cc2c(s1)CNCC2 [Compound 83, 2-(2-Oxo-3-(Phenethylamino)-6-Phenylpyrazin-1(2H)-yl)-N-((4,5,6,7-Tetrahydrothieno[2,3-c]Pyridin-2-yl)Methyl)Acetamide] | > 6.30 |
| Cc1nc(N)ccc1CNC(=O)Cn1c(-c2ccnc(N)c2)cnc(NCCc2ccccc2)c1=O [Compound 84, N-((6-Amino-2-Methylpyridin-3-yl)Methyl)-2-(6-(2-Aminopyridin-4-yl)-2-Oxo-3-(Phenethylamino)Pyrazin-1(2H)-yl)Acetamide] | > 6.30 |
| Cc1nc(N)ccc1CNC(=O)Cn1c(-c2cccc3cc[nH]c23)cnc(NCCc2ccccc2)c1=O [Compound 85] | > 6.30 |
| O=C(Cn1c(-c2ccccc2F)cnc(NCCc2ccccc2)c1=O)NCc1cc2cnccc2[nH]1 [Compound 86, N-((1H-Pyrrolo[3,2-c]Pyridin-2-yl)Methyl)-2-(6-(2-Fluorophenyl)-2-Oxo-3-(Phenethylamino)Pyrazin-1(2H)-yl)Acetamide Trifluoroacetate] | > 6.30 |
| O=C(Cn1c(-c2ccc(Cl)s2)cnc(NCCc2ccccc2)c1=O)NCc1cc2cnccc2[nH]1 [Compound 89, N-((1H-Pyrrolo[3,2-c]Pyridin-2-yl)Methyl)-2-(6-(5-Chlorothiophen-2-yl)-2-Oxo-3-(Phenethylamino)Pyrazin-1(2H)-yl)Acetamide] | > 6.30 |
| O=C(Cn1c(-c2cnn(C3COC3)c2)cnc(NCCc2ccccc2)c1=O)NCc1cc2cnccc2[nH]1 [Compound 90, N-((1H-pyrrolo[3,2-c]pyridin-2-yl)methyl)-2-(6-(1-(oxetan-3-yl)-1H-pyrazol-4-yl)-2-oxo-3-(phenethylamino)pyrazin-1(2H)-yl)acetamide trifluoroacetate] | > 6.30 |

More lines, now with the values ahead:

| pKi | Compound |
| --- | --- |
| > 6.30 | O=C(Cn1c(-c2ccccc2)cnc(NCC2(c3cccc(F)c3)CC2)c1=O)NCc1cc2cnccc2[nH]1 [Compound 64, N-((1H-Pyrrolo[3,2-c]pyridin-2-yl)methyl)-2-(3-(((1-(3-fluorophenyl)cyclopropyl)methyl)amino)-2-oxo-6-phenylpyrazin-1(2H)-yl)acetamide] |
| > 6.30 | Cn1cc(-c2cnc(NCC3(c4ccc(Cl)cc4)CC3)c(=O)n2CC(=O)NCc2cc3cnccc3[nH]2)cn1 [Compound 65, N-((1H-Pyrrolo[3,2-c]Pyridin-2-yl)Methyl)-2-(3-(((1-(4-Chlorophenyl)Cyclopropyl)Methyl)Amino)-6-(1-Methyl-1H-Pyrazol-4-yl)-2-Oxopyrazin-1(2H)-yl)Acetamide Trifluoroacetate] |
| > 6.30 | O=C(Cn1c(-c2ccccc2)cnc(NC2(c3ccccc3)CC2)c1=O)NCc1cc2cnccc2[nH]1 [Compound 66, N-((1H-Pyrrolo[3,2-c]pyridin-2-yl)methyl)-2-(2-oxo-6-phenyl-3-((1-phenylcyclopropyl)amino)pyrazin-1(2H)-yl)acetamide trifluoroacetate] |
| > 6.30 | COc1cccc(C2(CNc3ncc(-c4ccccc4)n(CC(=O)NCc4cc5cnccc5[nH]4)c3=O)CC2)c1 [Compound 68, N-((1H-Pyrrolo[3,2-c]pyridin-2-yl)methyl)-2-(3-(((1-(3-methoxyphenyl)cyclopropyl)methyl)amino)-2-oxo-6-phenylpyrazin-1(2H)-yl)acetamide trifluoroacetate] |
| > 6.30 | O=C(Cn1c(-c2ccccc2)cnc(NCc2ccc(F)c(F)c2)c1=O)NCc1cc2cnccc2[nH]1 [Compound 70, N-((1H-Pyrrolo[3,2-c]pyridin-2-yl)methyl)-2-(3-((3,4-difluorobenzyl)amino)-2-oxo-6-phenylpyrazin-1(2H)-yl)acetamide trifluoroacetate] |
| > 6.30 | O=C(Cn1c(-c2ccccc2)cnc(NCC2(c3cccc(Cl)c3)CC2)c1=O)NCc1cc2cnccc2[nH]1 [Compound 71, N-((1H-Pyrrolo[3,2-c]pyridin-2-yl)methyl)-2-(3-(((1-(3-chlorophenyl)cyclopropyl)methyl)amino)-2-oxo-6-phenylpyrazin-1(2H)-yl)acetamide trifluoroacetate] |
| > 6.30 | O=C(Cn1c(-c2ccccc2)cnc(NCc2ccc(Cl)cc2)c1=O)NCc1cc2cnccc2[nH]1 [Compound 73, N-((1H-Pyrrolo[3,2-c]pyridin-2-yl)methyl)-2-(3-((4-chlorobenzyl)amino)-2-oxo-6-phenylpyrazin-1(2H)-yl)acetamide trifluoroacetate] |
| > 6.30 | O=C(Cn1c(-c2ccccc2)cnc(NC2(c3ccc(F)c(F)c3)CC2)c1=O)NCc1cc2cnccc2[nH]1 [Compound 74, N-((1H-Pyrrolo[3,2-c]pyridin-2-yl)methyl)-2-(3-((1-(3,4-difluorophenyl)cyclopropyl)amino)-2-oxo-6-phenylpyrazin-1(2H)-yl)acetamide trifluoroacetate] |
| > 6.30 | O=C(Cn1c(-c2ccccc2)cnc(NCc2cccc(Cl)c2)c1=O)NCc1cc2cnccc2[nH]1 [Compound 75, N-((1H-Pyrrolo[3,2-c]pyridin-2-yl)methyl)-2-(3-((3-chlorobenzyl)amino)-2-oxo-6-phenylpyrazin-1(2H)-yl)acetamide trifluoroacetate] |
| > 6.30 | Cc1cc2[nH]c(CNC(=O)Cn3c(-c4ccccc4)cnc(NC4(c5ccccc5)CC4)c3=O)cc2cn1 [Compound 76, N-((6-Methyl-1H-pyrrolo[3,2-c]pyridin-2-yl)methyl)-2-(2-oxo-6-phenyl-3-((1-phenylcyclopropyl)amino)pyrazin-1(2H)-yl)acetamide trifluoroacetate] |
| > 6.30 | COc1ccc(CNc2ncc(-c3ccccc3)n(CC(=O)NCc3cc4cnc(C)cc4[nH]3)c2=O)cc1 [Compound 77, 2-(3-((4-Methoxybenzyl)amino)-2-oxo-6-phenylpyrazin-1(2H)-yl)-N-((6-methyl-1H-pyrrolo[3,2-c]pyridin-2-yl)methyl)acetamide trifluoroacetate] |
| > 6.30 | Cc1ccccc1-c1cnc(NCCc2ccccc2)c(=O)n1CC(=O)NCc1cc2cnccc2[nH]1 [Compound 87, N-((1H-Pyrrolo[3,2-c]pyridin-2-yl)methyl)-2-(2-oxo-3-(phenethylamino)-6-(o-tolyl)pyrazin-1(2H)-yl)acetamide trifluoroacetate] |
| > 6.30 | O=C(Cn1c(-c2cccc(CO)c2)cnc(NCCc2ccccc2)c1=O)NCc1cc2cnccc2[nH]1 [Compound 88, N-((1H-Pyrrolo[3,2-c]pyridin-2-yl)methyl)-2-(6-(3-(hydroxymethyl)phenyl)-2-oxo-3-(phenethylamino)pyrazin-1(2H)-yl)acetamide trifluoroacetate] |
| > 6.30 | C=C(C)c1cccc(-c2cnc(NCCc3ccccc3)c(=O)n2CC(=O)NCc2cc3cnccc3[nH]2)c1 [Compound 91, N-((1H-Pyrrolo[3,2-c]Pyridin-2-yl)Methyl)-2-(2-Oxo-3-(Phenethylamino)-6-(3-(Prop-1-en-2-yl)Phenyl)Pyrazin-1(2H)-yl)Acetamide] |
